Patent US20240262856A1, “NOVEL SPINOSYN COMPOUNDS” (priority 2021, published 2024)
In brackets after ≈: the same amount, converted by molar mass. Like-named read-outs stand apart in the source and are kept apart here.

Tests used:
[1] = Kinetic solubility assay; format: physicochemical; conditions: 24 hours at room temperature (25±2° C.)
Description: Solubility of the compounds of the invention was assessed using kinetic solubility assay and compared to solubility of butenyl spinosyn. Stock solutions of spinosyn compounds were prepared in DMSO at 10 mM concentration). 10 uL of the stock solutions were added into 490 of in K.S. 5.4 buffer of pH 5.4 (80 mM phosphoric acid, acetic acid, boric acid buffer, adjusted the pH to pH 5.4 with 1 N HCl and 1N NaOH) or K.S. 7.4 buffer with pH of 7.4 (80 mM phosphoric acid, acetic acid, boric acid buffer, adjusted the pH to pH 7.4 with 1 N HCl and 1N NaOH). The solutions were incubated with shaking at room temperature (25±2° C.) for 24 hours. 200 uL of each solution were then transferred into a new MultiScreen filter plate (Membrane of polycarbonate) and filtered by millipore vacuum manifold, and the filtrate was collected. The concentrations of tested compounds in the filtered samples were analyzed by HPLC analysis calibrated by a standard curve generated by injection of 3 standard solutions of the relevant compound with concentrations of 1, 20, 200 μM.

[2] = UV-stability of 5 mM solutions in acetonitrile, remaining compound by HPLC; format: physicochemical; conditions: for share of remaining compound 0 h: start value for both aliquots; for Purity changing: 0 h to 10 h
Description: Synthesized spinosyn compounds were used to prepare 5 mM solutions in acetonitrile. The solution was divided in 2 aliquots and one aliquot was exposed to UV light at 254 nm and the other aliquot was incubated in the same conditions without UV light exposure. Quantities of remaining starting compounds were determined by HPLC after 0 h, 1 h, 5 h and 10 h.

[3] = system: Ostrinia nubilalis larvae; assay: Insecticide efficacy on corn leaves dipped in compound solution and infested with L1 larvae (Henderson-Tilton method); format: in vivo; conditions: for % Efficacy 3 days: 3 days post infestation; for % Efficacy 6 days: 6 days post infestation; for insecticidal activity on Ostrinia nubilalis larvae (in words): compared with Spinosad / spinetoram; for Emax: Ostrinia nubilalis
Description: Insecticide activities of the compounds of this invention were assessed in comparison with commercially available samples of spinosad (LGC (Dr. Ehrenstorfer); Product code: DRE-C16972830) and spinetoram (LGC (Dr. Ehrenstorfer); Product code: DRE-C16972770) Solutions of spinosyn compounds were prepared by adding 0.05% Tween 80, lowering pH to 5.95 and sonicating. Two concentrations of each compound were used, 0.1 μg/mL and 0.3 μg/mL, with each condition tested in four parallels.
Freshly collected corn leaves were dipped into the prepared solutions. After dipping leaves were left to dry at room temperature for 1 hour. Each dry leaf was then infested with 4 larvae (development stage L1), and the experimental device was incubated at 21° C.-23° C. for 24 h in order to optimize insect development. At two timings post infestation (3 days and 6 days), the insecticide efficacy is evaluated from the number of living larvae using the Henderson-Tilton method. Untreated control was integrated for normalization and validation of larvae health.

[4] = system: honey bees (Apis melifera carnica, Pollman 1879); assay: Single dose acute oral toxicity test on adult worker honey bees; format: in vivo
Description: Toxicity of the compounds of this invention towards honey bees (Apis melifera carnica, Pollman 1879) was assessed in comparison with commercially available samples of spinosad (LGC (Dr. Ehrenstorfer); Product code: DRE-C16972830) and the naturally produced compound butenyl spinosyn alpha 1. Solutions of spinosyn compounds were prepared in 100 mM ammonium acetate, pH=5, and later diluted in 50% (500 g/L) sucrose solution in water to final concentrations. Two final concentrations were used for each compound, 7.76 μmol/L and 15.53 μmol/L.
Single dose acute oral toxicity tests were conducted on adult worker bees according to previously described standard methods (Medrzycki at el., (2013)). Each compound and condition were tested in two parallels. Briefly, each parallel experiment consisted of 5 cages with 20 honey bees per cage. […] After uptake of the solutions honey bees were supplied with standard 50% sucrose solution and observed at 24 h and 48 h and the number of dead and live bees was estimated. Ammonium acetate solution with pH 5 was used as the negative control.

[5] = system: honey bees (Apis melifera carnica, Pollman 1879); conditions: previously established oral LD50 for honey bee; cited from earlier work
[6] = 0.078 nmol/bee oral single dose, 24 h after application
[7] = 0.078 nmol/bee oral single dose, 48 h after application
[8] = 0.155 nmol/bee oral single dose, 24 h after application
[9] = 0.155 nmol/bee oral single dose, 48 h after application
[10] = 25 °C, aqueous buffer, kinetic from dmso stock, K.S. 5.4 buffer pH 5.4, dose conc 200 μM, read-out: Kinetic Solubility pH = 5.4
[11] = 25 °C, aqueous buffer, kinetic from dmso stock, K.S. 7.4 buffer pH 7.4, dose conc 200 μM, read-out: Kinetic Solubility pH = 7.4
[12] = 72 h, read-out: % Efficacy 3 days, dose 0.1 μg a.i./ml, 3 days post infestation
[13] = 72 h, read-out: % Efficacy 3 days, dose 0.3 μg a.i./ml, 3 days post infestation
[14] = 144 h, read-out: % Efficacy 6 days, dose 0.1 μg a.i./ml, 6 days post infestation
[15] = 144 h, read-out: % Efficacy 6 days, dose 0.3 μg a.i./ml, 6 days post infestation

CCC=CC1CCCC(OC2CCC(N(C)C)C(C)O2)C(C)C(=O)C2=CC3C(C=CC4CC(OC5OC(C)C(OC)C(OC)C5OC)CC43)C2CC(=O)O1 (stereo not drawn) [Butenyl spinosyn, butenyl spinosyn α1, reference compound]
solubility kinetic at 24 h ([1]; K.S. 5.4 buffer pH 5.4, dose conc 200 μM, read-out: Kinetic Solubility pH = 5.4): 183.17 µM (≈ 139 µg/mL) | solubility kinetic at 24 h ([1]; K.S. 7.4 buffer pH 7.4, dose conc 200 μM, read-out: Kinetic Solubility pH = 7.4): 3.52 µM (≈ 2.67 µg/mL) | share of remaining compound 0 h [2]: 90.0% | Purity changing ([2]; under UV light at 254 nm): −30.4% | share of remaining compound 1 h ([2]; under UV light at 254 nm): 88.6% | share of remaining compound 5 h ([2]; under UV light at 254 nm): 70.9% | share of remaining compound 10 h ([2]; under UV light at 254 nm): 59.6% | Purity changing ([2]; without UV): −0.6% | share of remaining compound 1 h ([2]; without UV): 90.6% | share of remaining compound 5 h ([2]; without UV): 90.7% | share of remaining compound 10 h ([2]; without UV): 89.4% | % Efficacy 3 days ([3]; dose 0.1 μg a.i./ml): 33% | % Efficacy 6 days ([3]; dose 0.1 μg a.i./ml): 56% | % Efficacy 3 days ([3]; dose 0.3 μg a.i./ml): 79% | % Efficacy 6 days ([3]; dose 0.3 μg a.i./ml): 100% | % of surviving honey bees [4, 6]: 57% | % of surviving honey bees [4, 7]: 37% | % of surviving honey bees [4, 8]: 32% | % of surviving honey bees [4, 9]: 6% | toxicity to honey bees in acute oral toxicity test (in words) ([4]; compared to the derivatives provided by this invention): higher toxicity to honey bees

spinosad [SPN, reference compound]
% Efficacy 3 days ([3]; dose 0.1 μg a.i./ml): 25% | % Efficacy 6 days ([3]; dose 0.1 μg a.i./ml): 46% | % Efficacy 3 days ([3]; dose 0.3 μg a.i./ml): 63% | % Efficacy 6 days ([3]; dose 0.3 μg a.i./ml): 100% | LD50 [5]: 0.057 μg/bee

CC/C=C/[C@H]1CCC[C@H](OC2CCC(N(C)C)C(C)O2)[C@@H](C)C(=O)C2=C[C@@H]3[C@@H](C=C[C@]4(OCC)C[C@@H](OC5OC(C)C(OC)C(OC)C5OC)C[C@@H]34)[C@@H]2CC(=O)O1 (stereo partly drawn) [Compound H2, 7-ethoxy butenyl spinosyn al]
solubility kinetic at 24 h [1, 10]: 166 µM (≈ 133 µg/mL) | solubility kinetic at 24 h [1, 11]: 7.68 µM (≈ 6.16 µg/mL) | share of remaining compound 0 h [2]: 93.2% | Purity changing ([2]; under UV light at 254 nm): −53.5% | share of remaining compound 1 h ([2]; under UV light at 254 nm): 87.6% | share of remaining compound 5 h ([2]; under UV light at 254 nm): 67.8% | share of remaining compound 10 h ([2]; under UV light at 254 nm): 39.7% | Purity changing ([2]; without UV): −0.9% | share of remaining compound 1 h ([2]; without UV): 93.6% | share of remaining compound 5 h ([2]; without UV): 93.7% | share of remaining compound 10 h ([2]; without UV): 92.3%

CC[C@H]1CCC[C@H](OC2CCC(N(C)C)C(C)O2)[C@@H](C)C(=O)C2=C[C@@H]3[C@@H](C=C[C@]4(OC)C[C@@H](OC5OC(C)C(OC)C(OC)C5OC)C[C@@H]34)[C@@H]2CC(=O)O1 (stereo partly drawn) [Compound H1a]
insecticidal activity on Ostrinia nubilalis larvae (in words) [3]: lower insecticidal activity | % Efficacy 3 days ([3]; dose 0.1 μg a.i./ml): 15% | % Efficacy 6 days ([3]; dose 0.1 μg a.i./ml): 41% | % Efficacy 3 days ([3]; dose 0.3 μg a.i./ml): 64% | % Efficacy 6 days ([3]; dose 0.3 μg a.i./ml): 93%

CC/C=C/[C@H]1CCC[C@H](OC2CCC([N+](C)(C)COC(=O)OC(C)C)C(C)O2)[C@@H](C)C(=O)C2=C[C@@H]3[C@@H](C=CC4(OC)C[C@@H](OC5OC(C)C(OC)C(OC)C5OC)C[C@@H]34)[C@@H]2CC(=O)O1 (stereo partly drawn) [Compound J7-H1]
% of surviving honey bees [4, 6]: 87% | % of surviving honey bees [4, 7]: 69% | % of surviving honey bees [4, 8]: 78% | % of surviving honey bees [4, 9]: 30%

CC/C=C/[C@H]1CCC[C@H](OC2CCC([N+](C)(C)COC(=O)C(C)(C)C)C(C)O2)[C@@H](C)C(=O)C2=C[C@@H]3[C@@H](C=CC4(OC)C[C@@H](OC5OC(C)C(OC)C(OC)C5OC)C[C@@H]34)[C@@H]2CC(=O)O1 (stereo partly drawn) [Compound J1A-H1]
% of surviving honey bees [4, 6]: 98% | % of surviving honey bees [4, 7]: 73% | % of surviving honey bees [4, 8]: 86% | % of surviving honey bees [4, 9]: 26%

spinetoram [Spinoteram, reference compound]
% Efficacy 3 days ([3]; dose 0.1 μg a.i./ml): 58% | % Efficacy 6 days ([3]; dose 0.1 μg a.i./ml): 81% | % Efficacy 3 days ([3]; dose 0.3 μg a.i./ml): 85% | % Efficacy 6 days ([3]; dose 0.3 μg a.i./ml): 96%

CC/C=C/[C@H]1CCC[C@H](OC2CCC(N(C)C)C(C)O2)[C@@H](C)C(=O)C2=C[C@@H]3[C@@H](C=C[C@]4(O)C[C@@H](OC5OC(C)C(OC)C(OC)C5OC)C[C@@H]34)[C@@H]2CC(=O)O1 (stereo partly drawn) [Compound A1, 7-hydroxy butenyl spinosyn α1]
solubility kinetic at 24 h [1, 10]: 192 µM (≈ 149 µg/mL) | solubility kinetic at 24 h [1, 11]: 187 µM (≈ 144 µg/mL) | share of remaining compound 0 h [2]: 90.7% | Purity changing ([2]; under UV light at 254 nm): −38.5% | share of remaining compound 1 h ([2]; under UV light at 254 nm): 86.6% | share of remaining compound 5 h ([2]; under UV light at 254 nm): 71.3% | share of remaining compound 10 h ([2]; under UV light at 254 nm): 52.2% | Purity changing ([2]; without UV): +0.2% | share of remaining compound 1 h ([2]; without UV): 90.7% | share of remaining compound 5 h ([2]; without UV): 90.8% | share of remaining compound 10 h ([2]; without UV): 90.9% | Emax [3, 12]: 2% | Emax [3, 13]: 15% | Emax [3, 14]: 2% | Emax [3, 15]: 19%

CC/C=C/[C@H]1CCC[C@H](OC2CCC(N(C)C)C(C)O2)[C@@H](C)C(=O)C2=C[C@@H]3[C@@H](C=C[C@]4(OC)C[C@@H](OC5OC(C)C(OC)C(OC)C5OC)C[C@@H]34)[C@@H]2CC(=O)O1 (stereo partly drawn) [Compound H1, 7-methoxy butenyl spinosyn α1]
solubility kinetic at 24 h [1, 10]: 183 µM (≈ 144 µg/mL) | solubility kinetic at 24 h [1, 11]: 77.1 µM (≈ 60.8 µg/mL) | share of remaining compound 0 h [2]: 96.0% | Purity changing ([2]; under UV light at 254 nm): −22.5% | share of remaining compound 1 h ([2]; under UV light at 254 nm): 95.6% | share of remaining compound 5 h ([2]; under UV light at 254 nm): 87.5% | share of remaining compound 10 h ([2]; under UV light at 254 nm): 73.5% | Purity changing ([2]; without UV): +0.7% | share of remaining compound 1 h ([2]; without UV): 96.5% | share of remaining compound 5 h ([2]; without UV): 96.9% | share of remaining compound 10 h ([2]; without UV): 96.7% | Emax [3, 12]: 27% | Emax [3, 13]: 58% | Emax [3, 14]: 89% | Emax [3, 15]: 100% | insecticidal activity on Ostrinia nubilalis larvae (in words) [3]: extremely potent insecticidal activity
